Test results as given in patent US9586948B2, “Inhibitors of IRAK4 activity” (MERCK SHARP & DOHME CORP., priority 2012, dated 2017).

target: GST tagged IRAK4 (Homo sapiens (Human), UniProt Q9NWZ3); assay: Determination of IRAK4 kinase activity (IMAP fluorescence polarization); assay type: biochemical; details: 0.5 nM GST tagged IRAK4, 100 nM fluorescent peptide substrate RP7030, 100 μM ATP, 30 minutes at 25° C.
Description: The kinase activity of IRAK4 is determined by its ability to catalyze the phosphorylation of a fluorescent polypeptide substrate. The extent of phosphorylation is measured using IMAP technology (Molecular Devices) where the phosphorylated fluorescent substrate binds to the large M(III)-based nanoparticles which reduces the rotational speed of the substrate and thus increases its fluorescent polarization (FP).
Procedure: A 20 μl reaction mixture contains 10 mM TriHCl, pH 7.2, 0.5 nM GST tagged IRAK4 (SignalChem), 100 nM fluorescent peptide substrate (RP7030, Molecular Devices), 100 μM ATP, 1 mM DTT, 1 mM MgCl2, and 0.01% Tween 20. The reaction is initiated by the addition of ATP. After incubation for 30 minutes at 25° C., 60 μl of Progressive IMAP Reagent (Molecular Devices) is added to stop the reaction. Change in RP7030's FP is determined by a FP reader (Analyst HT, LJL BioSystems).

Sequence of GST tagged IRAK4 (Q9NWZ3 whole entry): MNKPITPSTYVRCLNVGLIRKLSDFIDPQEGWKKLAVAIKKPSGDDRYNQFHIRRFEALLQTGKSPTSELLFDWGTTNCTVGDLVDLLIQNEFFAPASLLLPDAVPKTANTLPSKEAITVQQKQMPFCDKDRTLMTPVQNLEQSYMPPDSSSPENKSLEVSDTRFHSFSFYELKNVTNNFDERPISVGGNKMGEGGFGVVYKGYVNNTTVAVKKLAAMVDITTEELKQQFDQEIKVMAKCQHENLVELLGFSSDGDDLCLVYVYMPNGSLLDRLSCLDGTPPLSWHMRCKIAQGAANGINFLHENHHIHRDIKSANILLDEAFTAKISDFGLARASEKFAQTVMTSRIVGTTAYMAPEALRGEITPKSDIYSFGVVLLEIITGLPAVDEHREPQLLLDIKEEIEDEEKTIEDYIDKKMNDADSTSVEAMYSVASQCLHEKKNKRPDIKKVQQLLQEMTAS

Question: Cn1cc(NC(=O)c2cccc(-c3ccnc(NCC4CC4)c3)n2)c(C(N)=O)n1 [Example 1, N-(3-carbamoyl-1-methyl-1H-pyrazol-4-yl)-2′-((cyclopropylmethyl)amino)-[2,4′-bipyridine]-6-carboxamide] was tested. Which IC50 did it give?
Answer: 74 nM

Question: Cn1cc(NC(=O)c2cccc(-n3cccc3)n2)c(C(N)=O)n1 [Example 2, N-(3-carbamoyl-1-methyl-1H-pyrazol-4-yl)-6-(1H-pyrrol-1-yl)picolinamide] was tested. Which IC50 did it give?
Answer: 649 nM

Question: For Cn1cc(NC(=O)c2cccc(-c3ccnc(NC(=O)OC(C)(C)C)c3)n2)c(C(N)=O)n1 [Example 4, tert-butyl(6-((3-carbamoyl-1-methyl-1H-pyrazol-4-yl)carbamoyl)-[2,4′-bipyridin]-2′-yl)carbamate], which IC50 is on record?
Answer: 785 nM

Question: Cn1cc(NC(=O)c2ccnc(-c3ccnc(NCC4CC4)c3)c2)c(C(N)=O)n1 [Example 5, N-(3-carbamoyl-1-methyl-1H-pyrazol-4-yl)-2′-(cyclopropylmethylamino)-2,4′-bipyridine-4-carboxamide] was tested. Which IC50 did it give?
Answer: 1450 nM

Question: Which IC50 does the source give for Cn1cc(NC(=O)c2cccc(-c3ccnc(N)c3)n2)c(C(N)=O)n1 [Example 6, 2′-amino-N-(3-carbamoyl-1-methyl-1H-pyrazol-4-yl)-[2,4′-bipyridine]-6-carboxamide] here?
Answer: 101 nM

Question: How did the IC50 turn out when Cn1cc(NC(=O)c2cncc(-c3ccnc(NCC4CC4)c3)c2)c(C(N)=O)n1 [Example 7, N-(3-carbamoyl-1-methyl-1H-pyrazol-4-yl)-2′-(cyclopropylmethylamino)-3,4′-bipyridine-5-carboxamide] was run?
Answer: 1100 nM

Question: For Cn1ncc(NC(=O)c2cccc(-c3ccnc(NCC4CC4)c3)n2)c1C(N)=O [Example 8, N-(5-carbamoyl-1-methyl-1H-pyrazol-4-yl)-2′-(cyclopropylmethylamino)-2,4′-bipyridine-6-carboxamide], which IC50 is on record?
Answer: 2720 nM

Question: With Cn1cc(NC(=O)c2cccc(N3CCOCC3)n2)c(C(N)=O)n1 [Example 9, N-(3-carbamoyl-1-methyl-1H-pyrazol-4-yl)-6-morpholinopicolinamide] as the compound, how does the IC50 read?
Answer: 3220 nM

Question: How did the IC50 turn out when Cn1cc(NC(=O)c2cccc(N3CCNCC3)n2)c(C(N)=O)n1 [Example 10, N-(3-carbamoyl-1-methyl-1H-pyrazol-4-yl)-6-(piperazin-1-yl)picolinamide] was run?
Answer: 3450 nM

Question: How did the IC50 turn out when Cn1cc(NC(=O)c2cccc(-c3ccncc3)n2)c(C(N)=O)n1 [Example 11, N-(3-carbamoyl-1-methyl-1H-pyrazol-4-yl)-2,4′-bipyridine-6-carboxamide] was run?
Answer: 1900 nM

Question: With Cn1cc(NC(=O)c2cccc(-c3cccnc3)n2)c(C(N)=O)n1 [Example 12, N-(3-carbamoyl-1-methyl-1H-pyrazol-4-yl)-[2,3′-bipyridine]-6-carboxamide] as the compound, how does the IC50 read?
Answer: 212 nM

Question: With COc1cccc(-c2cccc(C(=O)Nc3cn(C)nc3C(N)=O)n2)c1 [Example 13, N-(3-carbamoyl-1-methyl-1H-pyrazol-4-yl)-6-(3-methoxyphenyl)picolinamide] as the compound, how does the IC50 read?
Answer: 637 nM

Question: COCCNc1cc(-c2cccc(C(=O)Nc3cn(C)nc3C(N)=O)n2)ccn1 [Example 15, N-(3-carbamoyl-1-methyl-1H-pyrazol-4-yl)-2′-((2-methoxyethyl)amino)-[2,4′-bipyridine]-6-carboxamide] was tested. Which IC50 did it give?
Answer: 187 nM

Question: How did the IC50 turn out when Cn1cc(NC(=O)c2cccc(-c3ccnc(NCC(F)F)c3)n2)c(C(N)=O)n1 [Example 16, N-(3-carbamoyl-1-methyl-1H-pyrazol-4-yl)-2′-((2,2-difluoroethyl)amino)-[2,4′-bipyridine]-6-carboxamide] was run?
Answer: 196 nM

Question: How did the IC50 turn out when Cn1cc(NC(=O)c2cccc(-c3ccnc(NCC4CCOCC4)c3)n2)c(C(N)=O)n1 [Example 17, N-(3-carbamoyl-1-methyl-1H-pyrazol-4-yl)-2′-(((tetrahydro-2H-pyran-4-yl)methyl)amino)-[2,4′-bipyridine]-6-carboxamide] was run?
Answer: 477 nM

Question: How did the IC50 turn out when Cn1cc(NC(=O)c2cccc(-c3ccnc(NCC(F)(F)F)c3)n2)c(C(N)=O)n1 [Example 18, N-(3-carbamoyl-1-methyl-1H-pyrazol-4-yl)-2′-((2,2,2-trifluoroethyl)amino)-[2,4′-bipyridine]-6-carboxamide] was run?
Answer: 127 nM

Question: How did the IC50 turn out when Cn1cc(NC(=O)c2ccnc(-c3ccnc(NCC4CC4)c3)n2)c(C(N)=O)n1 [Example 19, N-(3-carbamoyl-1-methyl-1H-pyrazol-4-yl)-2-(2-((cyclopropylmethyl)amino)pyridin-4-yl)pyrimidine-4-carboxamide] was run?
Answer: 283 nM

Question: Which IC50 does the source give for COc1ncccc1-c1cccc(C(=O)Nc2cn(C)nc2C(N)=O)n1 [Example 20, N-(3-carbamoyl-1-methyl-1H-pyrazol-4-yl)-2′-methoxy-[2,3′-bipyridine]-6-carboxamide] here?
Answer: 2130 nM

Question: With Cn1cc(NC(=O)c2cccc(-c3cccc(OC(F)(F)F)c3)n2)c(C(N)=O)n1 [Example 21, N-(3-carbamoyl-1-methyl-1H-pyrazol-4-yl)-6-(3-(trifluoromethoxy)phenyl)picolinamide] as the compound, how does the IC50 read?
Answer: 2260 nM

Question: With Cn1cc(NC(=O)c2cccc(-c3ccsc3)n2)c(C(N)=O)n1 [Example 22, N-(3-carbamoyl-1-methyl-1H-pyrazol-4-yl)-6-(thiophen-3-yl)picolinamide] as the compound, how does the IC50 read?
Answer: 362 nM

Question: Cn1cc(NC(=O)c2cccc(-c3ccc(N4CCOCC4)nc3)n2)c(C(N)=O)n1 [Example 23, N-(3-carbamoyl-1-methyl-1H-pyrazol-4-yl)-6′-morpholino-[2,3′-bipyridine]-6-carboxamide] was tested. Which IC50 did it give?
Answer: 1100 nM

Question: For CNC(=O)c1cccc(-c2cccc(C(=O)Nc3cn(C)nc3C(N)=O)n2)c1 [Example 24, N-(3-carbamoyl-1-methyl-1H-pyrazol-4-yl)-6-(3-(methylcarbamoyl)phenyl)picolinamide], which IC50 is on record?
Answer: 201 nM

Question: For Cn1cc(-c2cccc(C(=O)Nc3cn(C)nc3C(N)=O)n2)cn1 [Example 25, N-(3-carbamoyl-1-methyl-1H-pyrazol-4-yl)-6-(1-methyl-1H-pyrazol-4-yl)picolinamide], which IC50 is on record?
Answer: 32 nM

Question: Cn1cc(NC(=O)c2cccc(C3=CCS(=O)(=O)CC3)n2)c(C(N)=O)n1 [Example 26, N-(3-carbamoyl-1-methyl-1H-pyrazol-4-yl)-6-(1,1-dioxido-3,6-dihydro-2H-thiopyran-4-yl)picolinamide] was tested. Which IC50 did it give?
Answer: 1300 nM

Question: With Cn1cc(NC(=O)c2cccc(C3=CCCOC3)n2)c(C(N)=O)n1 [Example 27, N-(3-carbamoyl-1-methyl-1H-pyrazol-4-yl)-6-(5,6-dihydro-2H-pyran-3-yl)picolinamide] as the compound, how does the IC50 read?
Answer: 134 nM

Question: How did the IC50 turn out when Cn1cc(NC(=O)c2cccc(-c3ccc(C4CC4)nc3)n2)c(C(N)=O)n1 [Example 28, N-(3-carbamoyl-1-methyl-1H-pyrazol-4-yl)-6′-cyclopropyl-[2,3′-bipyridine]-6-carboxamide] was run?
Answer: 94 nM

Question: Which IC50 does the source give for Cn1cc(NC(=O)c2cccc(-c3cncc(Cl)c3)n2)c(C(N)=O)n1 [Example 29, N-(3-carbamoyl-1-methyl-1H-pyrazol-4-yl)-5′-chloro-[2,3′-bipyridine]-6-carboxamide] here?
Answer: 91 nM

Question: Cn1cc(NC(=O)c2cccc(C3=CCOCC3)n2)c(C(N)=O)n1 [Example 30, N-(3-carbamoyl-1-methyl-1H-pyrazol-4-yl)-6-(3,6-dihydro-2H-pyran-4-yl)picolinamide] was tested. Which IC50 did it give?
Answer: 426 nM

Question: Cn1cc(NC(=O)c2cccc(-c3cnccc3Cl)n2)c(C(N)=O)n1 [Example 31, N-(3-carbamoyl-1-methyl-1H-pyrazol-4-yl)-4′-chloro-[2,3′-bipyridine]-6-carboxamide] was tested. Which IC50 did it give?
Answer: 620 nM

Question: For CN1CCC(c2cccc(C(=O)Nc3cn(C)nc3C(N)=O)n2)=CC1=O [Example 32, N-(3-carbamoyl-1-methyl-1H-pyrazol-4-yl)-1′-methyl-6′-oxo-1′,2′,3′,6′-tetrahydro-[2,4′-bipyridine]-6-carboxamide], which IC50 is on record?
Answer: 82 nM

Question: How did the IC50 turn out when CN1CCC=C(c2cccc(C(=O)Nc3cn(C)nc3C(N)=O)n2)C1 [Example 33, N-(3-carbamoyl-1-methyl-1H-pyrazol-4-yl)-1′-methyl-1′,2′,5′,6′-tetrahydro-[2,3′-bipyridine]-6-carboxamide] was run?
Answer: 739 nM

Question: CN1CCC(CNC(=O)c2nn(C)cc2NC(=O)c2cccc(-c3ccnc(NCC4CC4)c3)n2)C1 (stereo not drawn) [Example 34, 2′-((cyclopropylmethyl)amino)-N-(1-methyl-3-(((1-methylpyrrolidin-3-yl)methyl)carbamoyl)-1H-pyrazol-4-yl)-[2,4′-bipyridine]-6-carboxamide] was tested. Which IC50 did it give?
Answer: 729 nM

Question: How did the IC50 turn out when Cn1cc(NC(=O)c2cccc(-c3ccnc(NCC4CC4)c3)n2)c(C(=O)NCCN2CCCC2)n1 [Example 35, 2′-((cyclopropylmethyl)amino)-N-(1-methyl-3-((2-(pyrrolidin-1-yl)ethyl)carbamoyl)-1H-pyrazol-4-yl)-[2,4′-bipyridine]-6-carboxamide] was run?
Answer: 1060 nM

Question: Cn1cc(NC(=O)c2cccc(-c3ccnc(NCC4CC4)c3)n2)c(C(=O)NCc2ncc[nH]2)n1 [Example 36, N-(3-(((1H-imidazol-2-yl)methyl)carbamoyl)-1-methyl-1H-pyrazol-4-yl)-2′-((cyclopropylmethyl)amino)-[2,4′-bipyridine]-6-carboxamide] was tested. Which IC50 did it give?
Answer: 1540 nM

Question: CN(C)CCCCCNC(=O)c1nn(C)cc1NC(=O)c1cccc(-c2ccnc(NCC3CC3)c2)n1 [Example 37, 2′-((cyclopropylmethyl)amino)-N-(3-((5-(dimethylamino)pentyl)carbamoyl)-1-methyl-1H-pyrazol-4-yl)-[2,4′-bipyridine]-6-carboxamide] was tested. Which IC50 did it give?
Answer: 2190 nM

Question: How did the IC50 turn out when Cn1cc(NC(=O)c2cccc(-c3ccnc(NCC4CC4)c3)n2)c(C(=O)NCCc2ccccn2)n1 [Example 38, 2′-((cyclopropylmethyl)amino)-N-(1-methyl-3-((2-(pyridin-2-yl)ethyl)carbamoyl)-1H-pyrazol-4-yl)-[2,4′-bipyridine]-6-carboxamide] was run?
Answer: 4970 nM
